In ChEMBL document CHEMBL1909640, “Mode of action investigation for the antibacterial cationic anthraquinone analogs” (2011):
The source made the active and inactive calls. No cut-off for these calls is given here.

Tests used:
[1] = tested on: Escherichia coli; assay: Induction of plasma membrane disruption in Escherichia coli ATCC 25922 at 2 mg/mL after 2 hrs by Sytox dye based assay; type: functional, organism-based
[2] = tested on: Staphylococcus aureus; assay: Induction of redox process disruption in Staphylococcus aureus ATCC 25923 at 0.064 ug/mL after 6 hrs by CTC dye based assay; type: functional, organism-based
[3] = tested on: Escherichia coli; assay: Induction of plasma membrane disruption in Escherichia coli ATCC 25922 at 4 ug/mL after 2 hrs by Sytox dye based assay; type: functional, organism-based
[4] = tested on: Escherichia coli; assay: Antibacterial activity against Escherichia coli ATCC 25922 after 12 to 18 hrs by broth dilution method; type: functional
[5] = tested on: Staphylococcus aureus; assay: Induction of plasma membrane disruption in Staphylococcus aureus ATCC 25923 at 0.064 ug/mL after 10 mins by Sytox dye based assay; type: functional, organism-based
[6] = tested on: Staphylococcus aureus; assay: Induction of redox process disruption in Staphylococcus aureus ATCC 25923 at 0.064 ug/mL after 2 hrs by CTC dye based assay; type: functional, organism-based
[7] = tested on: Escherichia coli; assay: Induction of plasma membrane disruption in Escherichia coli ATCC 25922 at 2 mg/mL after 10 mins by Sytox dye based assay; type: functional, organism-based
[8] = tested on: Escherichia coli; assay: Induction of plasma membrane disruption in Escherichia coli ATCC 25922 a 4 ug/mL after 10 mins by Sytox dye based assay; type: functional, organism-based
[9] = tested on: Escherichia coli; assay: Induction of redox process disruption in Escherichia coli ATCC 25922 at 4 ug/mL after 2 hrs by CTC dye based assay; type: functional, organism-based
[10] = tested on: Escherichia coli; assay: Induction of redox process disruption in Escherichia coli ATCC 25922 at 2 mg/mL after 6 hrs by CTC dye based assay; type: functional, organism-based
[11] = tested on: Staphylococcus aureus; assay: Antibacterial activity against Staphylococcus aureus ATCC 25923 after 12 to 18 hrs by broth dilution method; type: functional
[12] = tested on: Staphylococcus aureus; assay: Induction of plasma membrane disruption in Staphylococcus aureus ATCC 25923 at 8 ug/mL after 2 hrs by Sytox dye based assay; type: functional, organism-based
[13] = tested on: Staphylococcus aureus; assay: Induction of redox process disruption in Staphylococcus aureus ATCC 25923 at 8 ug/mL after 6 hrs by CTC dye based assay; type: functional, organism-based
[14] = tested on: Escherichia coli; assay: Induction of redox process disruption in Escherichia coli ATCC 25922 at 2 mg/mL after 2 hrs by CTC dye based assay; type: functional, organism-based
[15] = tested on: Escherichia coli; assay: Induction of redox process disruption in Escherichia coli ATCC 25922 at 4 ug/mL after 6 hrs by CTC dye based assay; type: functional, organism-based
[16] = tested on: Staphylococcus aureus; assay: Induction of plasma membrane disruption in Staphylococcus aureus ATCC 25923 at 0.064 ug/mL after 2 hrs by Sytox dye based assay; type: functional, organism-based
[17] = tested on: Staphylococcus aureus; assay: Induction of redox process disruption in Staphylococcus aureus ATCC 25923 at 8 ug/mL after 2 hrs by CTC dye based assay; type: functional, organism-based
[18] = tested on: Staphylococcus aureus; assay: Induction of plasma membrane disruption in Staphylococcus aureus ATCC 25923 at 8 ug/mL after 10 mins by Sytox dye based assay; type: functional, organism-based

Compound	Activity [1]	Activity [2]	Activity [3]	MIC [4] [µg/mL]	Activity [5]	Activity [6]	Activity [7]	Activity [8]	Activity [9]	Activity [10]	MIC [11] [µg/mL]	Activity [12]	Activity [13]	Activity [14]	Activity [15]	Activity [16]	Activity [17]	Activity [18]
CCCCCCCCCCCCCCCCn1n[n+](C)c2c1C(=O)c1ccccc1C2=O.[Cl-]	Active	inactive	inactive	≥ 250	inactive	inactive	Active	inactive	inactive	Active	0.25	inactive	Active	Active	inactive	inactive	Active	inactive
CCCCCCCCCCCCn1n[n+](C)c2c1C(=O)c1ccccc1C2=O.[Cl-]	Active	inactive	inactive	16	inactive	inactive	Active	inactive	inactive	Active	0.064	inactive	Active	Active	inactive	inactive	Active	inactive
CCCCCCCCCn1n[n+](C)c2c1C(=O)c1ccccc1C2=O.[Cl-]	Active	inactive	inactive	64	inactive	inactive	Active	inactive	inactive	Active	0.032	inactive	Active	Active	inactive	inactive	Active	inactive
CCCCCCCCCCn1n[n+](C)c2c1C(=O)c1ccccc1C2=O.[Cl-]	Active	inactive	inactive	32	inactive	inactive	Active	inactive	inactive	Active	0.032	inactive	Active	Active	inactive	inactive	Active	inactive
Hexadecyltrimethylammonium bromide	Active						Active											
CCCCCCCCn1n[n+](CC)c2c1C(=O)c1ccccc1C2=O.[Cl-]	Active	inactive	inactive	≥ 250	inactive	inactive	Active	inactive	inactive	Active	0.25	inactive	Active	Active	inactive	inactive	Active	inactive
CCCCCCCCn1n[n+](C)c2c1C(=O)c1ccccc1C2=O.[Cl-]	Active	inactive	inactive	16	inactive	inactive	Active	inactive	inactive	Active	0.032	inactive	Active	Active	inactive	inactive	Active	inactive
CCCCCCCCCCCn1n[n+](C)c2c1C(=O)c1ccccc1C2=O.[Cl-]	Active	inactive	inactive	32	inactive	inactive	Active	inactive	inactive	Active	0.25	inactive	Active	Active	inactive	inactive	Active	inactive
